Test results reported in PubChem BioAssay AID248 (DTP/NCI, 2004).
Several values for one entry are separate records, joined by “and”; a condition that tells them apart may be missing. Identical values can stand only once. Inconclusive results and toxic doses are left out.

System: L1210 leukemia ip in BDF1 mice, survival T/C
Experiment: NCI In Vivo Anticancer Drug Screen. Data for tumor model L1210 Leukemia (intraperitoneal) in B6D2F1 (BDF1) mice
Conditions: endpoint: mean survival time, higher = longer survival
How it was run: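 Tumor cells were implanted, animals were treated, and survival was followed. The result divides the treated measurement by the vehicle-control measurement.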

[1] = dose: 100.0 mg/kg/injection, schedule: Q04DX003 (ip), vehicle: Klucel (hydroxypropylcellulose) (HPC)
[2] = dose: 100.0 mg/kg/injection, schedule: Q04DX003 (ip), vehicle: saline with Tween-80
[3] = dose: 200.0 mg/kg/injection, schedule: Q04DX003 (ip), vehicle: saline with Tween-80
[4] = dose: 400.0 mg/kg/injection, schedule: Q04DX003 (ip), vehicle: saline with Tween-80
[5] = dose: 100.0 mg/kg/injection, schedule: Q01DX009 (ip), vehicle: saline
[6] = dose: 100.0 mg/kg/injection, schedule: Q04DX003 (ip), vehicle: saline
[7] = dose: 200.0 mg/kg/injection, schedule: Q01DX009 (ip), vehicle: saline
[8] = dose: 200.0 mg/kg/injection, schedule: Q04DX003 (ip), vehicle: saline
[9] = dose: 400.0 mg/kg/injection, schedule: Q01DX009 (ip), vehicle: saline
[10] = dose: 400.0 mg/kg/injection, schedule: Q04DX003 (ip), vehicle: saline
[11] = dose: 100.0 mg/kg/injection, schedule: Q01DX009 (ip), vehicle: Klucel (hydroxypropylcellulose) (HPC)
[12] = dose: 200.0 mg/kg/injection, schedule: Q01DX009 (ip), vehicle: Klucel (hydroxypropylcellulose) (HPC)
[13] = dose: 400.0 mg/kg/injection, schedule: Q01DX009 (ip), vehicle: Klucel (hydroxypropylcellulose) (HPC)
[14] = dose: 50.0 mg/kg/injection, schedule: Q01DX009 (ip), vehicle: saline with Tween-80
[15] = dose: 100.0 mg/kg/injection, schedule: Q01DX001 (ip), vehicle: saline
[16] = dose: 200.0 mg/kg/injection, schedule: Q01DX001 (ip), vehicle: saline
[17] = dose: 400.0 mg/kg/injection, schedule: Q01DX001 (ip), vehicle: saline
[18] = dose: 100.0 mg/kg/injection, schedule: Q01DX009 (ip), vehicle: saline with Tween-80
[19] = dose: 200.0 mg/kg/injection, schedule: Q04DX003 (ip), vehicle: Klucel (hydroxypropylcellulose) (HPC)
[20] = dose: 400.0 mg/kg/injection, schedule: Q04DX003 (ip), vehicle: Klucel (hydroxypropylcellulose) (HPC)

O=C(CCN1CC1)NCCc1ccccc1
T/C (dose: 20.0 mg/kg/injection, schedule: Q04DX003 (ip), vehicle: Klucel (hydroxypropylcellulose) (HPC)): 92 % of control
T/C (dose: 40.0 mg/kg/injection, schedule: Q04DX003 (ip), vehicle: Klucel (hydroxypropylcellulose) (HPC)): 95 % of control
T/C [1]: 86 % of control

CC(=O)O/N=C(/CCC(=O)O)c1ccccc1
T/C (dose: 50.0 mg/kg/injection, schedule: Q04DX002 (ip), vehicle: saline with Tween-80): 97 % of control
T/C (dose: 100.0 mg/kg/injection, schedule: Q04DX002 (ip), vehicle: saline with Tween-80): 108 % of control
T/C (dose: 200.0 mg/kg/injection, schedule: Q04DX002 (ip), vehicle: saline with Tween-80): 94 % of control

Cc1cccc(Nc2nc(N)nc(N)c2N)c1
T/C (dose: 25.0 mg/kg/injection, schedule: Q01DX Z (ip), vehicle: saline): 101 % of control
T/C (dose: 50.0 mg/kg/injection, schedule: Q01DX Z (ip), vehicle: saline): 91 % of control

COc1cc(/C=N/OCc2cc3c(cc2Cl)OCO3)cc(OC)c1OC
T/C [2]: 99 % of control
T/C [3]: 94 % of control
T/C [4]: 96 % of control

CC(C=C1CCCCC1)C(=O)O (stereo not given)
T/C [5]: 95 % of control
T/C [6]: 102 % of control
T/C [7]: 105 % of control
T/C [8]: 102 % of control
T/C [9]: 97 % of control
T/C [10]: 105 % of control

COc1ccc(CC(C(=O)O)C(Cc2ccc(OC)c(OC)c2)C(=O)O)cc1OC (stereo not given)
T/C (dose: 50.0 mg/kg/injection, schedule: Q01DX009 (ip), vehicle: Klucel (hydroxypropylcellulose) (HPC)): 94 % of control
T/C [11]: 104 % of control
T/C [6]: 118 % of control
T/C [12]: 95 % of control
T/C [8]: 114 % of control
T/C [13]: 91 % of control
T/C [10]: 98 % of control

CC(C)(C)OOC(=O)C1(F)CC1(c1ccccc1)c1ccccc1 (stereo not given)
T/C (dose: 50.0 mg/kg/injection, schedule: Q01DX001 (ip), vehicle: Klucel (hydroxypropylcellulose) (HPC)): 100 % of control
T/C (dose: 100.0 mg/kg/injection, schedule: Q01DX001 (ip), vehicle: Klucel (hydroxypropylcellulose) (HPC)): 100 % of control
T/C (dose: 200.0 mg/kg/injection, schedule: Q01DX001 (ip), vehicle: Klucel (hydroxypropylcellulose) (HPC)): 109 % of control

c1ccc(SSc2ccccc2)cc1
T/C (dose: 25.0 mg/kg/injection, schedule: Q01DX009 (ip), vehicle: saline with Tween-80): 89 % of control
T/C (dose: 25.0 mg/kg/injection, schedule: Q04DX003 (ip), vehicle: saline with Tween-80): 95 % of control
T/C [14]: 86 % of control
T/C (dose: 50.0 mg/kg/injection, schedule: Q04DX003 (ip), vehicle: saline with Tween-80): 103 % of control
T/C [2]: 97 % of control

COc1ccc(C(C)=O)cc1CCCO
T/C [15]: 95 % of control
T/C [16]: 91 % of control
T/C [17]: 97 % of control

CCOC(=O)C(C)(C(=O)OCC)c1ccccc1
T/C [18]: 97 % of control
T/C [6]: 97 % of control
T/C (dose: 200.0 mg/kg/injection, schedule: Q01DX009 (ip), vehicle: saline with Tween-80): 95 % of control
T/C [8]: 97 % of control
T/C (dose: 400.0 mg/kg/injection, schedule: Q01DX009 (ip), vehicle: saline with Tween-80): 95 % of control
T/C [10]: 98 % of control

COc1cc(/C=N/NC(=O)CNC(=O)NCc2ccccc2)ccc1O
T/C [14]: 92 % of control
T/C [18]: 95 % of control

CC(C)(C)C1(O)CCCCC1
T/C [11]: 99 % of control
T/C [1]: 98 % of control
T/C [12]: 92 % of control
T/C [19]: 100 % of control
T/C [13]: 92 % of control
T/C [20]: 98 % of control

O=CNc1ncnn1C(=S)NCc1ccccc1
T/C (dose: 50.0 mg/kg/injection, schedule: Q01DX009 (ip), vehicle: saline): 105 % of control
T/C [5]: 111 % of control

CCS(=O)(=O)CC(C)O (stereo not given)
T/C [5]: 90 % of control
T/C (dose: 100.0 mg/kg/injection, schedule: Q04DX002 (ip), vehicle: saline): 101 % of control
T/C [7]: 93 % of control
T/C [9]: 104 % of control
T/C (dose: 400.0 mg/kg/injection, schedule: Q04DX002 (ip), vehicle: saline): 108 % of control

O=C1c2ccccc2C(=O)N1CNCCCNCN1C(=O)c2ccccc2C1=O
T/C [2]: 93 % of control
T/C [3]: 95 % of control
T/C [4]: 96 % of control

O=[N+]([O-])c1ccc(NC(=S)Nc2cccc(C(F)(F)F)c2)cc1
T/C [11]: 90 % of control
T/C [12]: 91 % of control
T/C [13]: 100 % of control

CN1C(=O)C(c2ccccc2)(c2ccccc2)C(Br)=C1c1ccccc1
T/C (dose: 50.0 mg/kg/injection, schedule: Q01DX001 (ip), vehicle: saline): 107 % of control
T/C [15]: 91 % of control
T/C [16]: 96 % of control
T/C [17]: 102 % of control

O=C(OCC1OC(n2c(=O)[nH]cc(F)c2=O)C(OC(=O)c2ccccc2)C1OC(=O)c1ccccc1)c1ccccc1 (stereo not given)
T/C (dose: 12.5 mg/kg/injection, schedule: Q01DX005 (ip), vehicle: saline): 121 % of control
T/C (dose: 20.0 mg/kg/injection, schedule: Q01DX005 (ip), vehicle: Klucel (hydroxypropylcellulose) (HPC)): 108 % of control
T/C (dose: 25.0 mg/kg/injection, schedule: Q01DX005 (ip), vehicle: saline): 152 % of control
T/C (dose: 50.0 mg/kg/injection, schedule: Q01DX005 (ip), vehicle: saline): 196 % of control and 206 % of control
T/C (dose: 80.0 mg/kg/injection, schedule: Q01DX005 (ip), vehicle: Klucel (hydroxypropylcellulose) (HPC)): 209 % of control
T/C (dose: 100.0 mg/kg/injection, schedule: Q01DX005 (ip), vehicle: saline): 94 % of control
T/C (dose: 200.0 mg/kg/injection, schedule: Q01DX005 (ip), vehicle: saline): 93 % of control and 92 % of control

Nc1nc(N)nc(-c2ccc(-n3nnc4ccccc4c3=O)cc2)n1
T/C [11]: 90 % of control
T/C [1]: 96 % of control
T/C [12]: 93 % of control
T/C [19]: 96 % of control
T/C [13]: 90 % of control
T/C [20]: 91 % of control

CCCCCCCCCCCCCCCCOc1ccc(C(=O)CC(=O)OC)cc1
T/C [11]: 93 % of control
T/C (dose: 100.0 mg/kg/injection, schedule: Q04DX003 (ip), vehicle: other): 94 % of control
T/C [12]: 92 % of control
T/C (dose: 200.0 mg/kg/injection, schedule: Q04DX003 (ip), vehicle: other): 101 % of control
T/C [13]: 92 % of control
T/C (dose: 400.0 mg/kg/injection, schedule: Q04DX003 (ip), vehicle: other): 94 % of control

N#Cc1[nH]cnc1N1CC[N+](CCCl)=N1
T/C [5]: 104 % of control
T/C [7]: 103 % of control
T/C [9]: 95 % of control

COC1(OC)C2C(Cl)=C(Cl)C1(Cl)C(Br)C2c1ccccc1 (stereo not given)
T/C (dose: 100.0 mg/kg/injection, schedule: Q01DX001 (ip), vehicle: carboxymethylcellulose (CMC)): 97 % of control
T/C (dose: 200.0 mg/kg/injection, schedule: Q01DX001 (ip), vehicle: carboxymethylcellulose (CMC)): 92 % of control
T/C (dose: 400.0 mg/kg/injection, schedule: Q01DX001 (ip), vehicle: carboxymethylcellulose (CMC)): 103 % of control

Cc1ccccc1N=Nc1c(O)n(-c2ccccc2)c(=S)n(-c2ccccc2)c1=O
T/C (dose: 37.5 mg/kg/injection, schedule: Q01DX001 (ip), vehicle: saline with Tween-80): 99 % of control
T/C (dose: 75.0 mg/kg/injection, schedule: Q01DX001 (ip), vehicle: saline with Tween-80): 90 % of control
T/C (dose: 150.0 mg/kg/injection, schedule: Q01DX001 (ip), vehicle: saline with Tween-80): 99 % of control

CCSCCSCC
T/C [5]: 98 % of control
T/C [6]: 101 % of control
T/C [7]: 98 % of control
T/C [8]: 97 % of control
T/C [9]: 96 % of control
T/C [10]: 97 % of control
